Source: article PMC10897212, “Structural insight into the allosteric inhibition of human sodium-calcium exchanger NCX1 by XIP and SEA0400” (The EMBO Journal, 2023)

Target: T1, Na+/Ca2+ exchanger NCX1.3 (Homo sapiens, UniProt P32418)
T1 construct: gene SLC8A1; full-length wild-type human NCX1.3 (UniProtKB P32418-2); model residues 51–283, 405–501, 518–637, 654–720, and 736–937
Assay: cryo-EM structure at […] Å; also CPM thermofluor shift (~[…] °C) and Fura-2 Ca2+ uptake inhibition at […] in HEK293T cells
Type: binding

For CCOc1ccc(Oc2ccc(OCc3cc(F)ccc3F)cc2)c(N)c1 [SEA0400], the “cryo-EM structure at 3.5 Å; also CPM thermofluor shift (~10 °C) and Fura-2 Ca2+” value was “The SEA0400 molecule is allocated within a negatively charged cavity surrounded by TM2ab, TM4, TM5, and TM8”.
